Data on four compounds can be found in US8343981B2, “Heterocyclyl-substituted dihydroquinazolines and their use as antiviral agents” (AiCuris GmbH & Co. KG, priority 2003, dated 2013).

In series [1] the test system is HCMV. Description: Anti-HCMV cytopathogenicity test. It is filed as cell-based, human cytomegalovirus. The note with it: for SI HCMV (selectivity index): CC50 (NHDF)/EC50 (HCMV); for EC50: Human betaherpesvirus 5, 144 h, HCMV-infected NHDF cells, M.O.I. 0.001-0.002, 6 days, 50% inhibition of cytopathic effect. As for the experimental part:
(§1) Anti-HCMV (Anti-Human Cytomegalovirus) Cytopathogenicity Tests The test compounds are employed as 50 millimolar (mM) solutions in dimethyl sulphoxide (DMSO). Ganciclovir®, Foscarnet® and Cidofovir® are used as reference compounds. After addition of in each case 2 μl of the 50, 5, 0.5 and 0.05 mM DMSO stock solutions to 98 μl portions of cell culture medium in row […] for duplicate determinations, 1:2 dilutions are carried out with 50 μl portions of medium up to row 11 of the 96-well plate. The wells in rows 1 and 12 each contain 50 μl of medium. Then 150 μl portions of a suspension of 1×10^4 cells (human prepuce fibroblasts [NHDF]) are pipetted into each of the wells (row 1=cell control) and, in rows 2-12, a mixture of HCMV-infected and uninfected NHDF cells (M.O.I.=0.001-0.002), i.e. 1-2 infected cells per 1000 uninfected cells. Row 12 (without substance) serves as virus control. The final test concentrations are 250-0.0005 μM. The plates are incubated at 37° C./5% CO2 for 6 days, i.e. until all the cells are infected in the virus controls (100% cytopathogenic effect [CPE]). The wells are then fixed and stained by adding a mixture of formalin and Giemsa's dye (30 minutes), washed with double-distilled water and dried in a drying oven at 50° C. The plates are then assessed visually using an overhead microscope (Plaque Multiplier from Technomara). The following data can be acquired from the test plates: • CC50 (NHDF)=substance concentration in μM at which no visible cytostatic effects on the cells are evident by comparison with the untreated cell control; • EC50 (HCMV)=substance concentration in μM which inhibits the CPE (cytopathic effect) by 50% compared with the untreated virus control; • SI (selectivity index)=CC50 (NHDF)/EC50 (HCMV).
For orientation: Protection from cytopathic effect is a common read-out in antiviral testing.

Series [2] is described as follows: Cytostatic effect on NHDF cells in the anti-HCMV cytopathogenicity test. The series is classed as cell-based. The note with it: NHDF cells (human prepuce fibroblasts), 6 days incubation, visual assessment, concentration at which no visible cytostatic effects are evident. Here is the method: as §1

As for `COc1ccc(C(F)(F)F)cc1N1C(N2CCn3c(cc4c(C)cccc43)C2)=Nc2c(F)cccc2C1CC(=O)O` (single isomer, unassigned) [Example 2], in series [1], the “SI HCMV (selectivity index)” value is listed as 233 and the EC50 came to 0.09 µM. In series [2], the midpoint of cytotoxicity, the CC50 at 6 days, lay at 21 µM.
For `COc1ccc(C(F)(F)F)cc1N1C(N2CCn3c(cc4c(F)cccc43)C2)=Nc2c(F)cccc2C1CC(=O)O` (single isomer, unassigned) [Example 4], in series [1], the “SI HCMV (selectivity index)” value came out at 117 and the EC50 came to 0.12 µM. This compound also had a CC50 at 6 days in series [2] of 14 µM.
The corresponding values for `COc1ccc(C(F)(F)F)cc1N1C(N2CCN3c4ccc(F)cc4CC3C2)=Nc2c(F)cccc2C1CC(=O)O` (single isomer, unassigned) [Example 16, {8-Fluoro-2-(8-fluoro-3,4,10,10a-tetrahydropyrazino[1,2-a]indol-2(1H)-yl)-3-[2-methoxy-5-(trifluoromethyl)phenyl]-3,4-dihydroquinazolin-4-yl}acetic acid] are 1050, 0.02 µM and 21 µM.
On the same counts, the results for `COc1ccc(C(F)(F)F)cc1N1C(N2CCN3c4cccc(C)c4CC3C2)=Nc2c(F)cccc2C1CC(=O)O` (stereo not drawn) [Example 9, [8-Fluoro-3-[2-methoxy-5-(trifluoromethyl)phenyl]-2-(9-methyl-3,4,10,10a-tetra-hydropyrazino[1,2-a]indol-2(1H)-yl)-3,4-dihydroquinazolin-4-yl]acetic acid] are 600, 0.04 µM and 24 µM.

In general, EC50 refers to the concentration needed to bring the measured effect to its halfway point. As usually defined, the CC50 is the concentration giving 50% cytotoxicity.
